# Measured values published in the supplement of paper PMC8837787.
# System: Saccharomyces cerevisiae ABC16-Green Monster
# Assay: growth inhibition at single dose (up to 150 µM), below the 70% cut-off for dose-response; higher = more potent
# Conditions: 18 h; 30 °C; YPD
# In short: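 Data are given as percent growth inhibition. Log-phase drug-sensitive S. cerevisiae ABC16-Green Monster cells (OD600 0.1–0.2, 200 µl per well in 96-well plates) were treated in biological duplicates with each library compound at a single 150 µM dose, with untreated cultures alongside, and OD600 was measured at 0 h and after 18 h at 30 °C. Compounds falling below 70% in both replicates were not taken to dose-response.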
row,Structure (SMILES),growth inhibition at single dose [%]
1,COc1ccc(-c2nc(-c3cccc(NC(=O)Cc4ccc(F)cc4)c3)no2)cc1OC,< 70
2,CC(Nc1ccc(Oc2cccc(F)c2)cc1)C(=O)N1CCNC1=O (centres undefined),< 70
3,COc1ccc(Nc2cc(C)nc(NCc3ccccc3)n2)cc1,< 70
4,Nc1nccc2ccc(-c3ccc4nccn4c3)cc12,< 70
5,CC1CCc2[nH]c3ccc(C(=O)Nc4ccccc4N4CCCCC4)cc3c2C1 (centres undefined),< 70
6,CNC(=O)c1ccc(CN(C2CC2)S(=O)(=O)c2ccc(C)cc2C)cc1,< 70
7,Cc1ccc2[nH]c(C3CCCNC3)c(-c3ccncc3)c2c1 (centres undefined),< 70
8,O=C(CN1C(=O)CCOc2ccccc21)N1CCN(C(=O)C2COc3ccccc3O2)CC1 (centres undefined),< 70
9,CCCS(=O)(=O)c1cnc(C2COc3ccccc3O2)nc1N (centres undefined),< 70
10,O=C(NC1CCCCC1)C(c1cccs1)N(CCc1ccccc1)C(=O)c1ccco1 (centres undefined),< 70
11,CCOC(=O)C1=C(C)N=c2sc(=Cc3ccccc3O)c(=O)n2C1c1ccc(OC)c2ccccc12 (centres undefined),< 70
12,CN(CC(=O)Nc1ccc(Cl)c(C(F)(F)F)c1)Cc1ccc(O)c2ncccc12,< 70
13,Cn1ccnc1Sc1ncnc2sccc12,< 70
14,CCCn1nc(C(=O)Nc2ccccc2N2CCc3ccccc3C2)ccc1=O,< 70
15,CCOc1c(Cl)cc(CNCC(O)c2ccccc2)cc1OC (centres undefined),< 70
16,CCCCOC(=O)c1ccc(Nc2cc(C)nc3ccc(OC)cc23)cc1,< 70
17,CCNC(=O)C(C)NC(=O)c1cc(-c2ccccc2)nc2c1cnn2Cc1ccccc1Cl (centres undefined),< 70
18,Cn1c(=O)c2cc(C(=O)NCCCN3CCCCCC3)sc2c2ccccc21,< 70
19,O=C(CCc1ccco1)NC1CCN(CC2(c3ccc(Cl)cc3)CCC2)CC1,< 70
20,O=C(C1CCCCC1)N1CC(=O)N2CCc3ccccc3C2C1 (centres undefined),< 70
21,CC1CC(C)CN(C(=O)c2ccc(Cl)cc2Cl)C1 (centres undefined),< 70

row,Structure (SMILES),growth inhibition at single dose [%]
1,Cc1ccc(C(=O)NC(C)C)n1C,< 70
2,COc1ccc(C2=NN(C3CCCCCC3)C(=O)C2(C)C)cc1OCCCCOc1ccc(-c2nn[nH]n2)cc1,< 70
3,CNc1nc(-c2[nH]c(C)c(C(=O)OC)c2C)cs1,< 70
4,CN(C)Cc1ccc(CNc2ncnc3scc(-c4ccccc4)c23)cc1,< 70
5,Cc1cc(Nc2ccc(C(F)(F)F)cc2)n2ccnc2n1,< 70
6,Nc1nc(Nc2cccc(F)c2)nc2ccccc12,< 70
7,CCc1sc(C(=O)Nc2cnc3ccccc3c2)cc1C,< 70
8,Cc1nn(-c2ccc(F)cc2)c(Cl)c1/C=C1\C(=O)Nc2ccccc21,< 70
9,CC(Nc1ncnc2sccc12)c1ccc(-n2cncn2)cc1 (centres undefined),< 70
10,CCS(=O)(=O)N(Cc1ccco1)Cc1cc2ccc(C)cc2nc1O,< 70
11,O=C(Nc1ccnc(-c2cccnc2)n1)c1cc(C(F)(F)F)cc(C(F)(F)F)c1,< 70
12,CCOC(=O)c1cnc2ccc(CC)cc2c1O,< 70
13,CC(C)(C)c1ccc(Oc2ccc(N)cc2)cc1,< 70
14,O=C(Nc1nnc(S)s1)c1cc(Br)ccc1Cl,< 70
15,Cc1cnc(NC(=O)c2ccc(N(C)C3CCCCC3)cc2)s1,< 70
16,COc1cc(C(F)(F)F)nc2ccc(C)c(N)c12,< 70
17,CO/C=C(/C(=O)OC)c1ccccc1Oc1cc(Oc2ccccc2C#N)ncn1,< 70
18,O=C(Nc1ccc(N2CCNCC2)nc1)c1oc(-c2ccccc2)nc1C(F)(F)F,< 70
19,CNC(=O)CNc1nc(-c2ccccn2)nc2scc(-c3ccccc3)c12,< 70
20,COc1ccc2c(c1)C1(Nc3ccccc3-c3nc4ccccc4n31)C(=O)N2 (centres undefined),< 70
21,O=C(COc1ccc2[nH]c3ccccc3c(=O)c2c1)N1c2ccccc2OCC1c1ccccc1 (centres undefined),< 70

row,Structure (SMILES),growth inhibition at single dose [%]
1,COc1cc(NC(C)CCCN)c2ncccc2c1 (centres undefined),< 70
2,O=C(NC1CCN(c2ccnc3ccccc23)C1)c1cccc(C(F)(F)F)c1 (centres undefined),< 70
3,N=C(N)c1ccc(-c2cc(-c3ccccc3)on2)cc1,< 70
4,OC(CNC1CCCC1)Cn1c2ccccc2c2ccccc21 (centres undefined),< 70
5,CCn1c(SCC(=O)Nc2cc(C(F)(F)F)ccc2Cl)nc2ccccc2c1=O,< 70
6,FC(F)(F)c1cccc(Nc2nc(-c3ccccc3)nc3ncccc23)c1,< 70
7,Nc1ccc(-c2nc3cc(Cc4ccc5[nH]c(-c6ccc(N)cc6)nc5c4)ccc3[nH]2)cc1,< 70
8,Cc1ccc(Nc2nc(NCCO)c3ccccc3n2)cc1C,< 70
9,Nc1ncc(-c2ccc(C(F)(F)F)nc2)cc1-c1ccc(C(F)(F)F)nc1,< 70
10,CCn1ncc2c(NC3CCOCC3)c(CNC(=O)c3ccnn3C)c(C)nc21,< 70
11,CCn1c(CN2CCN(Cc3ccccc3)CC2)nc2cc(NC(=O)c3cccs3)ccc21,< 70
12,CCOc1ccc(-c2nc(NC(=O)CS(=O)(=O)c3ccccc3)sc2C)cc1,< 70
13,C=CCn1c[n+](C2=C(NS(=O)(=O)c3ccc(C)cc3)C(=O)c3ccccc3C2=O)c2ccccc21,< 70
14,Cc1ccc(NC(=O)c2nc[nH]c2C(=O)Nc2nc3ccccc3[nH]2)c(C)c1,< 70
15,COc1ccc(-c2csc3ncnc(NCC(=O)NC(C)C)c23)cc1,< 70
16,CN1CCN(CCCOc2ncc(Nc3ncc(-c4ccc(C(F)(F)F)c(F)c4)nc3C(N)=O)cn2)CC1,< 70
17,CC(C)c1ccc2cc(C(=O)Nc3ccc4c(c3)NC(=O)CO4)[nH]c2c1,< 70
18,COc1cc(CNCCc2ccc(Cl)cc2)cc(OC)c1O,< 70
19,Cc1nccnc1-c1ccnn1C(=O)Nc1cc(Cl)cc(Cl)c1,< 70
20,OCC1CCCN(c2nn3cc(-c4ccccc4)nc3s2)C1 (centres undefined),< 70
21,OC1=C2C(=Nc3ccccc3SC2c2ccc(Br)cc2)c2ccccc21 (centres undefined),< 70

row,Structure (SMILES),growth inhibition at single dose [%]
1,Cc1cc(C=C2SC(=Nc3ccccc3)N(C3CCCC3)C2=O)c(C)n1-c1ccc(Cl)cc1,< 70
2,CC(Oc1ccc(Cl)cc1)C(=O)Nc1sccc1C(N)=O (centres undefined),< 70
3,O=C(Nc1ccccc1O)c1ccc(-c2ccc(Cl)cc2Cl)o1,< 70
4,Clc1ccc(Cl)c(-c2ccc(CNCCN3CCNCC3)o2)c1,< 70
5,CN1CCN(c2cc(-c3ccc(F)cc3)nc(-c3ccncc3)n2)CC1,< 70
6,O=C(NC(c1ccccc1)c1ccc2cccnc2c1O)c1ccccc1 (centres undefined),< 70
7,COc1cccc(NC(=O)Cn2c(C)c(C#N)c3ccccc32)c1,< 70
8,CC(C)OCc1cc(CN2CCN(c3cccc(Cl)c3)CC2)c(O)c2ncccc12,< 70
9,CC(C)(CN)c1nc(-c2ccc(Cl)c(O)c2)c(-c2ccnc(N)n2)[nH]1,< 70
10,COc1cc(CNC(=O)Nc2nc3ccccc3s2)cc(OC)c1OC,< 70
11,CCN1CCN(Cc2ccc(NC(=O)c3cc4ccc5cccnc5c4[nH]3)cc2)CC1,< 70
12,Cc1nn(Cc2ccccc2)c(Cl)c1C(=O)NC1CCCCCC1,< 70
13,CC(C)n1nc(-c2cc3c(Cl)cccc3[nH]2)c2c(N)ncnc21,< 70
14,O=C(Nc1cccc(Cl)c1)c1cnc(N2CCN(c3ccncc3)CC2)c(Cl)c1,< 70
15,O=C(c1cnc2cc3c(cc2c1)OCCO3)c1cc(F)ccc1O,< 70
16,Cc1cccc(Nc2nc(N)c3ccccc3n2)c1,< 70
17,Cc1sc2ncnc(Sc3nc4ccccc4[nH]3)c2c1C,< 70
18,O=C(NCCN1CCCC1)c1cc(NCCCCN2CCC(F)(F)CC2)nc2ccc(Cl)cc12,< 70
19,CCN(CC)S(=O)(=O)c1ccc(OC(C)C)c(NC(=O)C2=CN3CCS(=O)(=O)N=C3C=C2)c1,< 70
20,CC(C)(C)c1ccc(C(=O)Nc2c3c(nn2-c2cccc(Cl)c2)CSC3)cc1,< 70
21,Cc1cc(Cl)c(S(=O)(=O)N2CCCC2)cc1OCC(=O)NC1CCCCC1,< 70
